Measured values taken from PubChem BioAssay (NCI).
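Exposure lasted 48 hours, with cells grown in 96-well plates and compounds tested at five concentrations. TGI: concentration producing complete growth inhibition.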

Key:
Experiment in all cases: NCI-60 cell line screen, 48 h
DU-145 prostate = system: DU-145 prostate
HL-60(TB) leukemia = system: HL-60(TB) leukemia
TK-10 renal = system: TK-10 renal
NCI-H522 lung = system: NCI-H522 lung
NCI-H460 lung = system: NCI-H460 lung
KM12 colon = system: KM12 colon
CAKI-1 renal = system: CAKI-1 renal
BT-549 breast = system: BT-549 breast
T-47D breast = system: T-47D breast
OVCAR-3 ovarian = system: OVCAR-3 ovarian
HOP-62 NSCLC = system: HOP-62 NSCLC
PC-3 prostate = system: PC-3 prostate
ACHN renal = system: ACHN renal
MDA-MB-231 breast = system: MDA-MB-231 breast

SMILES	TGI (DU-145 prostate)	TGI (HL-60(TB) leukemia)	TGI (TK-10 renal)	TGI (NCI-H522 lung)	TGI (NCI-H460 lung)	TGI (KM12 colon)	TGI (CAKI-1 renal)	TGI (BT-549 breast)	TGI (T-47D breast)	TGI (OVCAR-3 ovarian)	TGI (HOP-62 NSCLC)	TGI (PC-3 prostate)	TGI (ACHN renal)	TGI (MDA-MB-231 breast)
O=c1c2cc(S(=O)(=O)O)ccc2nc(COc2ccc(Oc3ccc(Cl)cc3Cl)cc2)n1-c1ccc(Cl)cc1Oc1c(Cl)cccc1Cl	> 100 µM	> 100 µM	> 100 µM	48.4 µM	46.5 µM	> 100 µM	> 100 µM	61.1 µM	> 100 µM	61.1 µM	> 100 µM	> 100 µM	68.5 µM	
c1ccc2c(c1)nc1n2CNC1	> 100 µM	> 100 µM	> 100 µM		> 100 µM	> 100 µM	> 100 µM	> 100 µM	> 100 µM	> 100 µM	> 100 µM	> 100 µM	> 100 µM	> 100 µM
CC(=O)OC1(C)C=CC(=O)C=C1	> 100 µM	> 100 µM	49.8 µM	24.2 µM	79.5 µM	> 100 µM	> 100 µM	> 100 µM		> 100 µM	75.7 µM	> 100 µM	34.7 µM	49.1 µM
C=C(CC[C@@H](C)[C@H]1CC[C@@]2(C)C3=C(CC[C@]12C)[C@@]1(C)CC[C@H](O)[C@@H](C)C1CC3)C(C)C (stereo partly specified)		8.32 µM	2.56 µM		2.09 µM	2.76 µM	2.26 µM	3.13 µM		3.59 µM	1.9 µM	2.28 µM	2.55 µM	2.74 µM
CC1=CC(=O)N(n2c(Cc3ccccc3)n[nH]c2=O)C1=O	> 100 µM		> 100 µM	> 100 µM	> 100 µM	> 100 µM	> 100 µM	> 100 µM	> 100 µM	> 100 µM		> 100 µM	> 100 µM	> 100 µM
COc1cc(O)c2c(c1)OCC(Cc1ccc(O)cc1)C2=O (stereo unspecified)	> 100 µM	> 100 µM	> 100 µM	> 100 µM	> 100 µM	> 100 µM	> 100 µM		> 100 µM	> 100 µM	> 100 µM	> 100 µM	> 100 µM	> 100 µM
CNC(=O)N1CN(c2ccccc2)C2(CCN(CCCC3(c4ccc(F)cc4)OCCO3)CC2)C1=O	> 100 µM	> 100 µM	> 100 µM	> 100 µM	> 100 µM	> 100 µM	> 100 µM		> 100 µM	> 100 µM	> 100 µM	> 100 µM	> 100 µM	> 100 µM
CC(=O)N[C@@H](Cc1ccc(O)cn1)C(=O)NCc1cccc(Cl)c1	> 100 µM	> 100 µM	> 100 µM	> 100 µM	> 100 µM	> 100 µM	> 100 µM	> 100 µM	> 100 µM	> 100 µM	> 100 µM	> 100 µM	> 100 µM	
Cc1[nH]n(C2=NCCN2)c(=O)c1Cc1ccccc1		> 100 µM	> 100 µM	> 100 µM	> 100 µM	> 100 µM	> 100 µM	> 100 µM	> 100 µM	> 100 µM	> 100 µM	> 100 µM	> 100 µM	> 100 µM
CC(=NNC(=S)Nc1ccc(C)cc1)c1cccc(C(C)=NNC(=S)Nc2ccc(C)cc2)n1	> 100 µM	15.7 µM	> 100 µM	63.7 µM	> 100 µM	> 100 µM	40.3 µM		> 100 µM	14.3 µM	68.7 µM	> 100 µM	95.2 µM	> 100 µM
O=C1O/C(=C(/Cl)c2cccc3ccccc23)c2ccccc21	> 100 µM	> 100 µM	> 100 µM	> 100 µM	> 100 µM	> 100 µM	> 100 µM	> 100 µM		> 100 µM	> 100 µM	> 100 µM		
N#C/C(N)=C(\C#N)N=CN	> 100 µM	> 100 µM	> 100 µM		> 100 µM	> 100 µM			> 100 µM	> 100 µM	> 100 µM	> 100 µM	> 100 µM	> 100 µM
COC1(OC)CC(CO)(CNc2nc(N)nc(Cl)c2/C=N\O)C1	> 100 µM	> 100 µM	> 100 µM	> 100 µM	> 100 µM	24.4 µM	> 100 µM	> 100 µM		> 100 µM	> 100 µM	> 100 µM	> 100 µM	> 100 µM
CCCCCCCCCCN(CCCCCCCCCC)C(=O)COc1c2cc(C(C)(C)C)cc1Cc1cc(C(C)(C)C)cc(c1OCC(=O)N(CCCCCCCCCC)CCCCCCCCCC)Cc1cc(C(C)(C)C)cc(c1OCC(=O)N(CCCCCCCCCC)CCCCCCCCCC)Cc1cc(C(C)(C)C)cc(c1OCC(=O)N(CCCCCCCCCC)CCCCCCCCCC)C2	31.8 µM	30.9 µM	33.5 µM	10.2 µM	26.2 µM	24.5 µM			32.3 µM	29.1 µM	31.4 µM	21.8 µM	28.1 µM	33.2 µM
NNc1nncc2n[nH]nc12	> 100 µM	> 100 µM	> 100 µM		> 100 µM	> 100 µM	> 100 µM	> 100 µM	> 100 µM	> 100 µM	> 100 µM	> 100 µM	> 100 µM	> 100 µM
COc1ccc(-c2cc(=O)c3ccccc3[nH]2)c(OC)c1		> 100 µM	> 100 µM	> 100 µM	> 100 µM	> 100 µM				> 100 µM	> 100 µM		> 100 µM	
COc1cc2c(cc1OC)CCc1cc(OC)c(OC)cc1CC2	> 100 µM		> 100 µM		> 100 µM	> 100 µM	> 100 µM	> 100 µM	> 100 µM	> 100 µM	> 100 µM	> 100 µM	> 100 µM	> 100 µM
C=C1CCC23CC(CC[C@@H]2[C@@]12C[C@@H](c1ccoc1)OC2=O)OC3=O (stereo partly specified)		> 100 µM	> 100 µM	> 100 µM	> 100 µM	> 100 µM	> 100 µM			> 100 µM	> 100 µM		> 100 µM	
